Laboratory results as given in US7973061B2, “Anaplastic lymphoma kinase modulators and methods of use” (Exelixis, Inc., priority 2004, dated 2011).

Target: T1, ALK (baculovirus expressed human ALK kinase domain F1098-K1410) (Homo sapiens, UniProt Q9UM73)
T1 construct: human ALK kinase domain F1098-K1410; made in house
Experiment: biochemical
Settings: 1 μM ATP, 4 μM poly-AEKY, 12 nM ALK, 2 hours at ambient temperature; read-out: ALK IC50
Method in brief: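 Baculovirus-expressed human ALK kinase domain (F1098-K1410) was run in a luciferase-coupled chemiluminescent format, with ATP near its KM. After 2 h at ambient temperature, remaining ATP was read by luciferase-luciferin luminescence. IC50 came from 10-point dose-response curves fitted to a four-parameter equation with Hill slope.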

T1 sequence (Q9UM73 1098-1410): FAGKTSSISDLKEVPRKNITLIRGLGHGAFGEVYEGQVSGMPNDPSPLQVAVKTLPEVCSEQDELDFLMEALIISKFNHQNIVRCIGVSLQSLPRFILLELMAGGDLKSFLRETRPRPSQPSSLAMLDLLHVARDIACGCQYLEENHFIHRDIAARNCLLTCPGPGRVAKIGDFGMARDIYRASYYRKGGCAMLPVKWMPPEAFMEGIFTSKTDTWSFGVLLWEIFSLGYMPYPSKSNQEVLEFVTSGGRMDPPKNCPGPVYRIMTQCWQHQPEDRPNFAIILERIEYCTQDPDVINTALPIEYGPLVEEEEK

Structure (SMILES)	IC50 [nM]
O=C(COc1ccc(OC(F)(F)F)cc1)NCc1nc(C(=O)N2CCCC3CCCCC32)cs1 (centres unmarked) [Entry 252, N-{[4-(octahydroquinolin-1(2H)-ylcarbonyl)-1,3-thiazol-2-yl]methyl}-2-({4-[(trifluoromethyl)oxy]phenyl}oxy)acetamide]	500 to 2000
O=C(COc1ccc(OC(F)(F)F)cc1)NCc1nc(C(=O)NC2CCCCC2)cs1 [Entry 209, N-cyclohexyl-2-({[({4-[(trifluoromethyl)oxy]phenyl}oxy)acetyl]amino}methyl)-1,3-thiazole-4-carboxamide]	50 to 500
O=C(COc1ccc(OC(F)(F)F)cc1)NCc1nc(C(=O)O)co1 [Entry 308, 2-({[({4-[(trifluoromethyl)oxy]phenyl}oxy)acetyl]amino}methyl)-1,3-oxazole-4-carboxylic acid]	> 2000
CCCCCCC(C)NC(=O)c1csc(CNC(=O)COc2ccc(OC(F)(F)F)cc2)n1 (centres unmarked) [Entry 220, N-(1-methylheptyl)-2-({[({4-[(trifluoromethyl)oxy]phenyl}oxy)acetyl]amino}methyl)-1,3-thiazole-4-carboxamide]	500 to 2000
O=C(COc1ccc(OC(F)(F)F)cc1)NCc1nc(C(=O)NCCc2cccc(Cl)c2)co1 [Entry 31, N-[2-(3-chlorophenyl)ethyl]-2-({[({4-[(trifluoromethyl)oxy]phenyl}oxy)acetyl]amino}methyl)-1,3-oxazole-4-carboxamide]	50 to 500
O=C(COc1ccc(OC(F)(F)F)cc1)NCc1cc(C(=O)NCCc2cccc(Cl)c2)no1 [Entry 299, N-[2-(3-chlorophenyl)ethyl]-5-({[({4-[(trifluoromethyl)oxy]phenyl}oxy)acetyl]amino}methyl)isoxazole-3-carboxamide]	> 2000
NC(=O)C1CCN(C(=O)c2csc(CNC(=O)COc3ccc(OC(F)(F)F)cc3)n2)CC1 [Entry 272, 1-{[2-({[({4-[(trifluoromethyl)oxy]phenyl}oxy)acetyl]amino}methyl)-1,3-thiazol-4-yl]carbonyl}piperidine-4-carboxamide]	500 to 2000
O=C(COc1ccc(OC(F)(F)F)cc1)NCc1nc(C(=O)N[C@H]2CCC[C@@H]2OCc2ccccc2)cs1 [Entry 103, N-{(1S,2S)-2-[(phenylmethyl)oxy]cyclopentyl}-2-({[({4-[(trifluoromethyl)oxy]phenyl}oxy)acetyl]amino}methyl)-1,3-thiazole-4-carboxamide]	50 to 500
COc1ccccc1CNC(=O)c1csc(CNC(=O)Nc2ccc(C(C)C)cc2)n1 [Entry 29, 2-{[({[4-(1-methylethyl)phenyl]amino}carbonyl)amino]methyl}-N-{[2-(methyloxy)phenyl]methyl}-1,3-thiazole-4-carboxamide]	50 to 500
CC1CCCCC1NC(=O)c1coc(CNC(=O)COc2ccc(OC(F)(F)F)cc2)n1 (centres unmarked) [Entry 257, N-(2-methylcyclohexyl)-2-({[({4-[(trifluoromethyl)oxy]phenyl}oxy)acetyl]amino}methyl)-1,3-oxazole-4-carboxamide]	500 to 2000
COc1ccccc1CNC(=O)c1csc(CNC(=O)C/C=C/c2ccccc2)n1 [Entry 284, N-{[2-(methyloxy)phenyl]methyl}-2-({[(3E)-4-phenylbut-3-enoyl]amino}methyl)-1,3-thiazole-4-carboxamide]	500 to 2000
O=C(COc1ccc(OC(F)(F)F)cc1)NCc1nc(C(=O)NCCN2CCCCC2)cs1 [Entry 290, N-(2-piperidin-1-ylethyl)-2-({[({4-[(trifluoromethyl)oxy]phenyl}oxy)acetyl]amino}methyl)-1,3-thiazole-4-carboxamide]	500 to 2000
O=C(COc1cccc(Cl)c1)NCc1nc(C(=O)NCCc2cccc(Cl)c2)cs1 [Entry 161, N-[2-(3-chlorophenyl)ethyl]-2-[({[(3-chlorophenyl)oxy]acetyl}amino)methyl]-1,3-thiazole-4-carboxamide]	50 to 500
CCOc1cc(CCNC(=O)c2coc(CNC(=O)COc3ccc(OC(F)(F)F)cc3)n2)ccc1OC [Entry 250, N-{2-[3-(ethyloxy)-4-(methyloxy)phenyl]ethyl}-2-({[({4-[(trifluoromethyl)oxy]phenyl}oxy)acetyl]amino}methyl)-1,3-oxazole-4-carboxamide]	500 to 2000
CCCCCCN(CCC#N)C(=O)c1csc(CNC(=O)COc2ccc(OC(F)(F)F)cc2)n1 [Entry 238, N-(2-cyanoethyl)-N-hexyl-2-({[({4-[(trifluoromethyl)oxy]phenyl}oxy)acetyl]amino}methyl)-1,3-thiazole-4-carboxamide]	500 to 2000
C[C@H](NC(=O)c1csc(CNC(=O)COc2ccc(OC(F)(F)F)cc2)n1)C(C)(C)C [Entry 102, 2-({[({4-[(trifluoromethyl)oxy]phenyl}oxy)acetyl]amino}methyl)-N-[(1S)-1,2,2-trimethylpropyl]-1,3-thiazole-4-carboxamide]	50 to 500
CSc1ccc(CC(=O)NCc2nc(C(=O)NCCc3cccc(Cl)c3)cs2)cc1 [Entry 232, N-[2-(3-chlorophenyl)ethyl]-2-[({[4-(methylthio)phenyl]acetyl}amino)methyl]-1,3-thiazole-4-carboxamide]	500 to 2000

Now from value to molecule:

IC50 [nM]	Structure (SMILES)
50 to 500	O=C(COc1ccc(OC(F)(F)F)cc1)NCc1nc(C(=O)NCC2CC2)cs1 [Entry 216, N-(cyclopropylmethyl)-2-({[({4-[(trifluoromethyl)oxy]phenyl}oxy)acetyl]amino}methyl)-1,3-thiazole-4-carboxamide]
50 to 500	O=C(COc1ccc(OC(F)(F)F)cc1)NCc1nc(C(=O)NCc2ccc(F)c(Cl)c2)cs1 [Entry 191, N-[(3-chloro-4-fluorophenyl)methyl]-2-({[({4-[(trifluoromethyl)oxy]phenyl}oxy)acetyl]amino}methyl)-1,3-thiazole-4-carboxamide]
50 to 500	O=C(COc1ccc(OC(F)(F)F)cc1)NCc1nc(C(=O)NCc2ccc(F)c(F)c2)cs1 [Entry 185, N-[(3,4-difluorophenyl)methyl]-2-({[({4-[(trifluoromethyl)oxy]phenyl}oxy)acetyl]amino}methyl)-1,3-thiazole-4-carboxamide]
< 50	CC(CNC(=O)c1csc(CNC(=O)COc2ccc(OC(F)(F)F)cc2)n1)c1ccccc1 (centres unmarked) [Entry 7, N-(2-phenylpropyl)-2-({[({4-[(trifluoromethyl)oxy]phenyl}oxy)acetyl]amino}methyl)-1,3-thiazole-4-carboxamide]
50 to 500	Cc1ccc(CCNC(=O)c2csc(CNC(=O)COc3ccc(OC(F)(F)F)cc3)n2)cc1C [Entry 56, N-[2-(3,4-dimethylphenyl)ethyl]-2-({[({4-[(trifluoromethyl)oxy]phenyl}oxy)acetyl]amino}methyl)-1,3-thiazole-4-carboxamide]
50 to 500	CSCCNC(=O)c1csc(CNC(=O)COc2ccc(OC(F)(F)F)cc2)n1 [Entry 195, N-[2-(methylthio)ethyl]-2-({[({4-[(trifluoromethyl)oxy]phenyl}oxy)acetyl]amino}methyl)-1,3-thiazole-4-carboxamide]
50 to 500	Cc1cccc(CNC(=O)c2csc(CNC(=O)COc3ccc(OC(F)(F)F)cc3)n2)c1C [Entry 46, N-[(2,3-dimethylphenyl)methyl]-2-({[({4-[(trifluoromethyl)oxy]phenyl}oxy)acetyl]amino}methyl)-1,3-thiazole-4-carboxamide]
< 50	O=C(COc1ccc(OC(F)(F)F)cc1)NCc1nc(C(=O)NCCc2ccccc2F)cs1 [Entry 5, N-[2-(2-fluorophenyl)ethyl]-2-({[({4-[(trifluoromethyl)oxy]phenyl}oxy)acetyl]amino}methyl)-1,3-thiazole-4-carboxamide]
50 to 500	O=C(COc1ccc(OC(F)(F)F)cc1)NCc1nc(C(=O)NCc2ccccc2C(F)(F)F)cs1 [Entry 63, 2-({[({4-[(trifluoromethyl)oxy]phenyl}oxy)acetyl]amino}methyl)-N-{[2-(trifluoromethyl)phenyl]methyl}-1,3-thiazole-4-carboxamide]
50 to 500	Cc1ccc(CCNC(=O)c2csc(CNC(=O)COc3ccc(OC(F)(F)F)cc3)n2)c(C)c1 [Entry 49, N-[2-(2,4-dimethylphenyl)ethyl]-2-({[({4-[(trifluoromethyl)oxy]phenyl}oxy)acetyl]amino}methyl)-1,3-thiazole-4-carboxamide]
50 to 500	Cc1cc(Cl)cc(Cl)c1CNC(=O)c1csc(CNC(=O)COc2ccc(OC(F)(F)F)cc2)n1 [Entry 166, N-[(2,4-dichloro-6-methylphenyl)methyl]-2-({[({4-[(trifluoromethyl)oxy]phenyl}oxy)acetyl]amino}methyl)-1,3-thiazole-4-carboxamide]
< 50	Cc1ccccc1CCNC(=O)c1csc(CNC(=O)COc2ccc(OC(F)(F)F)cc2)n1 [Entry 15, N-[2-(2-methylphenyl)ethyl]-2-({[({4-[(trifluoromethyl)oxy]phenyl}oxy)acetyl]amino}methyl)-1,3-thiazole-4-carboxamide]
50 to 500	O=C(COc1ccc(OC(F)(F)F)cc1)NCc1nc(C(=O)NC2CCc3ccccc32)cs1 (centres unmarked) [Entry 182, N-(2,3-dihydro-1H-inden-1-yl)-2-({[({4-[(trifluoromethyl)oxy]phenyl}oxy)acetyl]amino}methyl)-1,3-thiazole-4-carboxamide]
50 to 500	O=C(COc1ccc(OC(F)(F)F)cc1)NCc1nc(C(=O)NC2CCN(Cc3ccccc3)CC2)cs1 [Entry 84, N-[1-(phenylmethyl)piperidin-4-yl]-2-({[({4-[(trifluoromethyl)oxy]phenyl}oxy)acetyl]amino}methyl)-1,3-thiazole-4-carboxamide]
50 to 500	COc1cccc(CCNC(=O)c2csc(CNC(=O)COc3ccc(OC(F)(F)F)cc3)n2)c1 [Entry 40, N-{2-[3-(methyloxy)phenyl]ethyl}-2-({[({4-[(trifluoromethyl)oxy]phenyl}oxy)acetyl]amino}methyl)-1,3-thiazole-4-carboxamide]
